Test systems include IGROV1 ovarian; HT29 colon; KM12 colon; SF-539 CNS; ACHN renal; EKVX NSCLC; HCT-116 colon; SK-MEL-28 melanoma; NCI-H23 lung; HCC-2998 colon.
Holding throughout (test): growth of human tumour cells (NCI), 48 h

Molecules are shown by their SMILES. Values joined by “and” are separate entries in the source; they are usually repeats but may differ in a detail not shown here. Equal values may be shown once.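 Grown in 96-well plates, cells were treated for 48 hours with each compound at five concentrations. Insufficient inhibition: endpoint recorded as highest concentration tested. GI50 = concentration required for 50% inhibition of growth. TGI denotes the concentration required for complete inhibition of growth.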

As to `Cc1c(N)nc(C2CC(=O)N2CC(N)C(N)=O)nc1C(=O)NC(C(=O)NC(C)C(O)C(C)C(=O)NC(C(=O)NCCc1nc(-c2nc(C(=O)NCCNCC(C)O)cs2)cs1)C(C)O)C(OC1OC(CO)C(O)C(O)C1OC1OC(CO)C(O)C(OC(N)=O)C1O)c1cnc[nH]1` (centres undefined), the GI50 with IGROV1 ovarian is 13.4 µM; in the assay with HT29 colon it was 33.1 µM; in the assay with KM12 colon, above 50 µM; with SF-539 CNS, 0.0499 µM; in the assay on ACHN renal, 0.135 µM; in the assay on EKVX NSCLC, above 50 µM. The GI50 is 6.97 µM with HCT-116 colon, above 50 µM in the assay on SK-MEL-28 melanoma and 1.06 µM in the assay with NCI-H23 lung. For the same molecule, the TGI in the assay on IGROV1 ovarian is 50 µM and > 100 µM; in the assay on HT29 colon, 50 µM and > 100 µM; with KM12 colon, above 100 µM; in the assay on SF-539 CNS it was 1.32 µM and 0.255 µM; in the assay with ACHN renal, 3.85 µM and 1.2 µM; in the assay on EKVX NSCLC it was above 88.9 µM. The TGI in the assay with HCT-116 colon is 50 µM and 24.3 µM; with SK-MEL-28 melanoma it was above 100 µM; in the assay on NCI-H23 lung, 16.3 µM and 8.81 µM; with HCC-2998 colon, above 100 µM.
In the case of `COc1ccc(Cl)cc1Nc1nc(C(F)(F)F)ccc1C(=O)N/N=C/c1ccc(Cl)cc1`, the GI50 with IGROV1 ovarian was 11 µM; in the assay with HT29 colon, 7.4 µM; in the assay on KM12 colon it was 5.16 µM; in the assay on SF-539 CNS, 6.63 µM; in the assay on ACHN renal, 6.4 µM; in the assay with EKVX NSCLC, 4.45 µM. The GI50 with HCT-116 colon was 3.39 µM; in the assay with SK-MEL-28 melanoma, 74 µM; with NCI-H23 lung it was 9.57 µM; in the assay on HCC-2998 colon, 2.67 µM. Moreover, the TGI is 79.1 µM with IGROV1 ovarian; above 100 µM with HT29 colon; above 100 µM with KM12 colon; 27.5 µM with SF-539 CNS; 66.2 µM in the assay with ACHN renal; above 100 µM in the assay with EKVX NSCLC. Besides, the TGI in the assay on HCT-116 colon is 19.9 µM; in the assay with SK-MEL-28 melanoma, above 100 µM; in the assay with NCI-H23 lung, 42 µM; in the assay on HCC-2998 colon, above 100 µM.
`O=C1OC(c2ccccc2)=N/C1=C\c1ccc(N(CCCl)CCCl)cc1`: the TGI in the assay on IGROV1 ovarian, with HT29 colon, with KM12 colon, in the assay with SF-539 CNS, with ACHN renal and with EKVX NSCLC was above 100 µM each time. Further, the TGI in the assay with HCT-116 colon, in the assay with SK-MEL-28 melanoma, in the assay on NCI-H23 lung and in the assay on HCC-2998 colon was above 100 µM in each case.
As to `Cn1c(=O)c(-c2c(Cl)cccc2Cl)cc2cnc(Nc3ccc(N4CCOCC4)cc3)nc21`, the TGI with IGROV1 ovarian was 1.33 µM; in the assay with HT29 colon it was 1.17 µM; in the assay on KM12 colon, 5.09 µM; in the assay on SF-539 CNS, 0.113 µM; in the assay on EKVX NSCLC it was above 30.9 µM; with HCT-116 colon it was 0.148 µM. Moreover, the TGI in the assay with SK-MEL-28 melanoma was above 100 µM; in the assay on NCI-H23 lung, 0.31 µM; in the assay on HCC-2998 colon, 0.209 µM. The GI50 was below 0.0467 µM in the assay with HT29 colon; 1.38 µM with KM12 colon; below 0.0451 µM with SF-539 CNS; 0.798 µM in the assay with EKVX NSCLC; below 0.01 µM in the assay on HCT-116 colon; 0.675 µM in the assay on SK-MEL-28 melanoma. The GI50 is below 0.01 µM in the assay with NCI-H23 lung and 0.0431 µM in the assay on HCC-2998 colon.
As for `O=C1NC2(CCCCC2)C2=C1CCCCC2`, the TGI in the assay on IGROV1 ovarian, with HT29 colon, with KM12 colon, in the assay on SF-539 CNS, in the assay on ACHN renal and in the assay on EKVX NSCLC was above 100 µM throughout. The TGI with HCT-116 colon, in the assay with SK-MEL-28 melanoma and in the assay with NCI-H23 lung was above 100 µM throughout.
Take `Cc1cccc2c1Oc1ncccc1C2NC(=O)CN(C)C` (centres undefined): the TGI with IGROV1 ovarian, in the assay with HT29 colon, in the assay on KM12 colon, in the assay on SF-539 CNS, in the assay on ACHN renal and in the assay on EKVX NSCLC was above 10 µM in each case. The TGI in the assay on NCI-H23 lung and in the assay with HCC-2998 colon was above 10 µM in each case.
In the case of `Cn1nc(-c2ccccc2)c(C(=O)/C=C/c2ccccc2)c(N2CCCC2)c1=O`, the TGI came out at 55.7 µM in the assay on IGROV1 ovarian; 26.9 µM in the assay with HT29 colon; 26.3 µM in the assay on SF-539 CNS; 41.5 µM in the assay on ACHN renal; 53.5 µM in the assay with EKVX NSCLC; 19.2 µM in the assay on HCT-116 colon. Moreover, the TGI in the assay on SK-MEL-28 melanoma came to 32.8 µM; in the assay with NCI-H23 lung it was 29.9 µM.
Take `CC1CC2C(=O)N(c3ccccc3)C(=O)C2c2[nH]c3ccccc3c21` (centres undefined): the TGI with IGROV1 ovarian, with HT29 colon, in the assay with KM12 colon, with SF-539 CNS, in the assay on ACHN renal and in the assay on EKVX NSCLC was above 100 µM in each case. The TGI with SK-MEL-28 melanoma, with NCI-H23 lung and in the assay with HCC-2998 colon was above 100 µM in each case.
Consider `Clc1ccc(N=CNc2ccc(-c3nc4ccccc4[nH]3)cc2)cc1`, for which the GI50 was above 100 µM with IGROV1 ovarian; 0.691 µM in the assay with KM12 colon; above 100 µM in the assay with ACHN renal; 0.482 µM in the assay on EKVX NSCLC; above 100 µM in the assay with HCT-116 colon; 22.8 µM in the assay on SK-MEL-28 melanoma. For the same molecule, the TGI with IGROV1 ovarian was above 100 µM; in the assay on KM12 colon, 18.5 µM; in the assay on ACHN renal it was above 100 µM; in the assay on EKVX NSCLC it was 34.5 µM; with HCT-116 colon, above 100 µM; in the assay on SK-MEL-28 melanoma, 63.6 µM.
Turning to `CN(C)c1ccc(/C=C2\Cc3ccccc3C2=O)cc1Br`, the TGI in the assay with IGROV1 ovarian, in the assay on HT29 colon, in the assay with KM12 colon, with ACHN renal, in the assay on EKVX NSCLC and in the assay on SK-MEL-28 melanoma was above 100 µM each time. Besides, the TGI in the assay with NCI-H23 lung and with HCC-2998 colon was above 100 µM throughout.
On to `O=C1COc2cc3c(cc2N1)SCC(=O)N3`, for which the TGI in the assay on IGROV1 ovarian, in the assay on HT29 colon, in the assay on KM12 colon, with SF-539 CNS, in the assay with EKVX NSCLC and in the assay with HCT-116 colon was above 100 µM each time. Also, the TGI with SK-MEL-28 melanoma, with NCI-H23 lung and with HCC-2998 colon was above 100 µM in each case.
On to `O=C(Nc1ccccc1)Oc1ccccc1C1CCCCC1`, for which the TGI in the assay with IGROV1 ovarian was above 100 µM; in the assay on HT29 colon, 51.6 µM; in the assay with KM12 colon it was above 100 µM; in the assay with SF-539 CNS, above 100 µM; in the assay with EKVX NSCLC, 85.4 µM; in the assay with HCT-116 colon it was 90.2 µM. The TGI in the assay on SK-MEL-28 melanoma was determined as 58.1 µM; with NCI-H23 lung, 47.1 µM; with HCC-2998 colon, 81.5 µM.
In the case of `N#Cc1c(N)nc(N2CCOCC2)c(C#N)c1-c1ccc(Cl)cc1Cl`, the GI50 was 6.64 µM in the assay with IGROV1 ovarian; 16.4 µM in the assay with HT29 colon; 17.9 µM in the assay with SF-539 CNS; 20.1 µM with EKVX NSCLC; 22.1 µM with HCT-116 colon; 18.4 µM in the assay with SK-MEL-28 melanoma. In addition, the GI50 is 19.7 µM in the assay on NCI-H23 lung and 13.3 µM in the assay with HCC-2998 colon. In addition, the TGI with IGROV1 ovarian worked out at 23.6 µM; in the assay on HT29 colon, 39.3 µM; with SF-539 CNS it was 42.1 µM; with EKVX NSCLC it was 64.3 µM; with HCT-116 colon it was 54.7 µM; with SK-MEL-28 melanoma, 53.1 µM. The TGI is 48.4 µM in the assay on NCI-H23 lung and 28.2 µM in the assay with HCC-2998 colon.
As for `NC(=O)NC(=O)C1CCC(=O)N1S(=O)(=O)c1ccc(Cl)cc1` (centres undefined), the TGI in the assay on IGROV1 ovarian, in the assay with HT29 colon, in the assay on KM12 colon, in the assay on SF-539 CNS, in the assay on ACHN renal and in the assay with EKVX NSCLC was above 100 µM each time. The TGI with HCT-116 colon, with SK-MEL-28 melanoma and with NCI-H23 lung was above 100 µM each time.
For the molecule `CCOC(=O)C1C(=O)C(=O)N2CCc3c([nH]c4ccccc34)C12` (centres undefined), the TGI in the assay with IGROV1 ovarian, in the assay on HT29 colon, in the assay on KM12 colon, in the assay on SF-539 CNS, in the assay with EKVX NSCLC and with HCT-116 colon was above 100 µM throughout. Moreover, the TGI with SK-MEL-28 melanoma, in the assay with NCI-H23 lung and with HCC-2998 colon was above 100 µM throughout.
As for `Cc1nc(-c2cccnc2)sc1C(=O)/C=C/c1ccc(Cl)cc1Cl`, the TGI in the assay with IGROV1 ovarian, in the assay on HT29 colon, in the assay with KM12 colon, in the assay on SF-539 CNS, in the assay with ACHN renal and with EKVX NSCLC was above 100 µM each time. The TGI in the assay with SK-MEL-28 melanoma, in the assay with NCI-H23 lung and in the assay on HCC-2998 colon was above 100 µM in each case.
Regarding `COc1cc2c(cc1OCCCN1CCN(CCCn3c4ccccc4c4ccccc43)CC1)N=C[C@@H]1CCCN1C2=O`, the GI50 is 0.0342 µM in the assay on HT29 colon; 0.157 µM in the assay on KM12 colon; 0.225 µM in the assay with SF-539 CNS; 0.43 µM in the assay with ACHN renal; 0.268 µM in the assay on EKVX NSCLC; 0.156 µM in the assay on HCT-116 colon. Besides, the values for the GI50 with SK-MEL-28 melanoma, in the assay on NCI-H23 lung and with HCC-2998 colon were 0.0516 µM, 0.122 µM and 0.12 µM, respectively. The TGI in the assay with HT29 colon was found to be 0.289 µM; in the assay on KM12 colon, 0.578 µM; with SF-539 CNS it was 0.49 µM; in the assay with ACHN renal, 1.27 µM; in the assay with EKVX NSCLC it was 0.988 µM; with HCT-116 colon it was 3.93 µM. For the same molecule, the values for the TGI in the assay with SK-MEL-28 melanoma, in the assay with NCI-H23 lung and in the assay on HCC-2998 colon were 0.151 µM, 0.599 µM and 0.37 µM, respectively.

For the origin of these results see PubChem BioAssay (NCI).
